# PubChem BioAssay AID1259407 (Chemical Carcinogenesis Research Information System (CCRIS), 2018)
# Activity calls are given as the source filed them. No rule for the calls is given here.
# Tested on: CCRIS mutagenicity, Ames/micronucleus/aberration tests
# Test: CCRIS mutagenicity studies
# [1] = Test System: AMES SALMONELLA TYPHIMURIUM, Strain/Indicator: TA98, Metabolic Activation: NONE, Method: STANDARD PLATE
# [2] = Test System: AMES SALMONELLA TYPHIMURIUM, Strain/Indicator: TA98, Metabolic Activation: RAT, LIVER, S-9, AROCLOR 1254, Method: STANDARD PLATE
# [3] = Test System: AMES SALMONELLA TYPHIMURIUM, Strain/Indicator: TA100, Metabolic Activation: NONE, Method: STANDARD PLATE
# [4] = Test System: AMES SALMONELLA TYPHIMURIUM, Strain/Indicator: TA100, Metabolic Activation: RAT, LIVER, S-9, AROCLOR 1254, Method: STANDARD PLATE
# [5] = Test System: AMES SALMONELLA TYPHIMURIUM, Strain/Indicator: TA1535, Metabolic Activation: NONE, Method: STANDARD PLATE
# [6] = Test System: AMES SALMONELLA TYPHIMURIUM, Strain/Indicator: TA1535, Metabolic Activation: RAT, LIVER, S-9, AROCLOR 1254, Method: STANDARD PLATE
# [7] = Test System: AMES SALMONELLA TYPHIMURIUM, Strain/Indicator: TA1537, Metabolic Activation: NONE, Method: STANDARD PLATE
# [8] = Test System: AMES SALMONELLA TYPHIMURIUM, Strain/Indicator: TA1537, Metabolic Activation: RAT, LIVER, S-9, AROCLOR 1254, Method: STANDARD PLATE
# [9] = Test System: AMES SALMONELLA TYPHIMURIUM, Strain/Indicator: TA1538, Metabolic Activation: NONE, Method: STANDARD PLATE
# [10] = Test System: AMES SALMONELLA TYPHIMURIUM, Strain/Indicator: TA1538, Metabolic Activation: RAT, LIVER, S-9, AROCLOR 1254, Method: STANDARD PLATE
# [11] = Test System: AMES SALMONELLA TYPHIMURIUM, Strain/Indicator: TA98, Metabolic Activation: NONE, Method: PREINCUBATION
# [12] = Test System: AMES SALMONELLA TYPHIMURIUM, Strain/Indicator: TA100, Metabolic Activation: NONE, Method: PREINCUBATION
structure (smiles),measurement,setting,value
O=S1(=O)OC(c2cc(Br)c(O)c(Br)c2)(c2cc(Br)c(O)c(Br)c2)c2ccccc21,mutagenic call,[1],inactive; negative
same,mutagenic call,[2],inactive; negative
same,mutagenic call,[3],inactive; negative
same,mutagenic call,[4],inactive; negative
same,mutagenic call,[5],inactive; negative
same,mutagenic call,[6],inactive; negative
same,mutagenic call,[7],inactive; negative
same,mutagenic call,[8],inactive; negative
same,mutagenic call,[9],inactive; negative
same,mutagenic call,[10],inactive; negative
same,mutagenic call,"Test System: MOUSE LYMPHOMA, Strain/Indicator: L5178Y (TK+/TK-), Metabolic Activation: NONE, Method: SUSPENSION/PLATE",inactive; negative
same,mutagenic call,"Test System: MOUSE LYMPHOMA, Strain/Indicator: L5178Y (TK+/TK-), Metabolic Activation: RAT, LIVER, S-9, AROCLOR 1254, Method: SUSPENSION/PLATE",inactive; negative
Oc1ccc([C@H]2COc3cc(O)ccc3C2)cc1,mutagenic call,"End Point: IN VITRO MICRONUCLEUS, Test System: CHINESE HAMSTER V79 CELLS, Metabolic Activation: NONE",active; positive
CO/N=C(\C(=O)N[C@@H]1C(=O)N2C(C(=O)O)=C(CSC(=O)c3ccco3)CS[C@H]12)c1csc(N)n1,mutagenic call,[1],inactive; negative
same,mutagenic call,[2],inactive; negative
same,mutagenic call,[3],inactive; negative
same,mutagenic call,[4],inactive; negative
same,mutagenic call,[5],inactive; negative
same,mutagenic call,[6],inactive; negative
same,mutagenic call,[7],inactive; negative
same,mutagenic call,[8],inactive; negative
same,mutagenic call,[9],inactive; negative
same,mutagenic call,[10],inactive; negative
same,mutagenic call,"Test System: CHINESE HAMSTER V-79, Strain/Indicator: V-79 (HPRT)/6-THIOGUANINE, Metabolic Activation: NONE",inactive; negative
same,mutagenic call,"Test System: CHINESE HAMSTER V-79, Strain/Indicator: V-79 (HPRT)/6-THIOGUANINE, Metabolic Activation: RAT, LIVER, S-9, AROCLOR 1254",inactive; negative
same,mutagenic call,"Test System: UDS RAT HEPATOCYTES, Strain/Indicator: THY INCORP, Metabolic Activation: NONE, Method: IN VIVO-IN VITRO",inactive; negative
CCN(N)CC,mutagenic call,"Test System: AMES SALMONELLA TYPHIMURIUM, Strain/Indicator: TA100, Metabolic Activation: NONE, Method: PREINCUBATION (11 HR GROWTH PERIOD FOR BACTERIA)",inactive; negative
same,mutagenic call,[3],inactive; negative
same,mutagenic call,[4],inactive; negative
same,mutagenic call,"Test System: AMES SALMONELLA TYPHIMURIUM, Strain/Indicator: TA100, Metabolic Activation: RAT, LIVER, S-9, PCB, Method: PREINCUBATION (11 HR GROWTH PERIOD FOR BACTERIA)",inactive; negative
same,mutagenic call,"Test System: AMES SALMONELLA TYPHIMURIUM, Strain/Indicator: TA102, Metabolic Activation: NONE, Method: PREINCUBATION (5 HR GROWTH PERIOD FOR BACTERIA)",active; positive
same,mutagenic call,"Test System: AMES SALMONELLA TYPHIMURIUM, Strain/Indicator: TA102, Metabolic Activation: NONE, Method: PREINCUBATION (7 OR 11 HR GROWTH PERIOD FOR BACTERIA)",inactive; negative
same,mutagenic call,"Test System: AMES SALMONELLA TYPHIMURIUM, Strain/Indicator: TA102, Metabolic Activation: NONE, Method: STANDARD PLATE",inactive; negative
same,mutagenic call,"Test System: AMES SALMONELLA TYPHIMURIUM, Strain/Indicator: TA102, Metabolic Activation: RAT, LIVER, S-9, AROCLOR 1254, Method: STANDARD PLATE",inactive; negative
same,mutagenic call,"Test System: AMES SALMONELLA TYPHIMURIUM, Strain/Indicator: TA102, Metabolic Activation: RAT, LIVER, S-9, PCB, Method: PREINCUBATION (5 OR 7 HR GROWTH PERIOD FOR BACTERIA)",inactive; negative
c1cc2ccc3ccc4ccc5cccc6c(c1)c2c3c4c56,mutagenic call,"Test System: AMES SALMONELLA TYPHIMURIUM, Strain/Indicator: TA97, Metabolic Activation: NONE, Method: STANDARD PLATE",inactive; negative
same,mutagenic call,"Test System: AMES SALMONELLA TYPHIMURIUM, Strain/Indicator: TA97, Metabolic Activation: RAT, LIVER, S-9, PCB, Method: STANDARD PLATE",active; positive
same,mutagenic call,[1],inactive; negative
same,mutagenic call,"Test System: AMES SALMONELLA TYPHIMURIUM, Strain/Indicator: TA98, Metabolic Activation: RAT, LIVER, S-9, AROCLOR 1254, Method: FLUCTUATION",active; positive
same,mutagenic call,[2],active; positive
same,mutagenic call,"Test System: AMES SALMONELLA TYPHIMURIUM, Strain/Indicator: TA98, Metabolic Activation: RAT, LIVER, S-9, PCB, Method: STANDARD PLATE",active; positive
same,mutagenic call,[3],inactive; negative
same,mutagenic call,[4],active; positive
same,mutagenic call,"Test System: AMES SALMONELLA TYPHIMURIUM, Strain/Indicator: TA100, Metabolic Activation: RAT, LIVER, S-9, PCB, Method: STANDARD PLATE",inactive; negative
same,mutagenic call,[8],active; positive
same,mutagenic call,"Test System: AMES SALMONELLA TYPHIMURIUM, Strain/Indicator: TA1538, Metabolic Activation: RAT, LIVER, S-9, AROCLOR 1254, Method: FLUCTUATION",active; positive
same,mutagenic call,[10],active; positive
same,mutagenic call,"Test System: AMES SALMONELLA TYPHIMURIUM, Strain/Indicator: TA1538, Metabolic Activation: RAT, LIVER, S-9, PHENOBARBITAL, Method: STANDARD PLATE",active; positive
C=C[C@H]1CN2CC[C@H]1C[C@H]2[C@H](OC(=O)OCC)c1ccnc2ccc(OC)cc12,mutagenic call,[11],inactive; negative
same,mutagenic call,"Test System: AMES SALMONELLA TYPHIMURIUM, Strain/Indicator: TA98, Metabolic Activation: RAT, LIVER, S-9, Method: PREINCUBATION",inactive; negative
same,mutagenic call,[12],inactive; negative
same,mutagenic call,"Test System: AMES SALMONELLA TYPHIMURIUM, Strain/Indicator: TA100, Metabolic Activation: RAT, LIVER, S-9, Method: PREINCUBATION",inactive; negative
c1ccc2c(COCC3CO3)cccc2c1 (stereo not drawn),mutagenic call,[3],active; positive
same,mutagenic call,[5],active; positive
BrCC(Br)c1ccccc1 (stereo not drawn),mutagenic call,"Test System: AMES SALMONELLA TYPHIMURIUM, Strain/Indicator: TA100/NG-57, Metabolic Activation: CELL PRETREATMENT WITH GLUTATHIONE, Method: PREINCUBATION",active; positive
same,mutagenic call,"Test System: AMES SALMONELLA TYPHIMURIUM, Strain/Indicator: TA100/NG-57, Metabolic Activation: NONE, Method: PREINCUBATION",active; positive
same,mutagenic call,"Test System: AMES SALMONELLA TYPHIMURIUM, Strain/Indicator: TA100, Metabolic Activation: CELL PRETREATMENT WITH GLUTATHIONE, Method: PREINCUBATION",active; positive
same,mutagenic call,[12],active; positive
same,mutagenic call,"Test System: AMES SALMONELLA TYPHIMURIUM, Strain/Indicator: TA100, Metabolic Activation: NONE, Method: SPOT TEST",active; positive
O=c1ccc2ccc3occc3c2o1,mutagenic call,[1],inactive; negative
same,mutagenic call,"Test System: AMES SALMONELLA TYPHIMURIUM, Strain/Indicator: TA98, Metabolic Activation: RAT, LIVER, S-9, PHENOBARBITAL, Method: STANDARD PLATE",inactive; negative
O=[N+]([O-])c1c(O)cc2c3c(cccc13)-c1ccccc1-2,mutagenic call,[1],active; positive
same,mutagenic call,[2],active; positive
CCCCOc1ccc2nc3cc(Cl)ccc3c(NCCCN(CC)CCCl)c2n1,mutagenic call,[1],active; positive
same,mutagenic call,[3],inactive; negative
same,mutagenic call,[5],inactive; negative
same,mutagenic call,"Test System: AMES SALMONELLA TYPHIMURIUM, Strain/Indicator: TA1536, Metabolic Activation: NONE, Method: STANDARD PLATE",active; positive
same,mutagenic call,[7],active; positive
same,mutagenic call,[9],active; positive
COc1cccc2c1C(=O)c1c(O)c3c(c(O)c1C2=O)C[C@@](O)(C(C)=O)C[C@@H]3O[C@H]1C[C@H](NCc2ccccc2)[C@H](O)[C@H](C)O1,mutagenic call,"Test System: UDS RAT HEPATOCYTES, Strain/Indicator: THY INCORP, Metabolic Activation: NONE, Method: AUTOMATIC COLONY COUNTER",active; positive
O[C@H]1[C@H]2O[C@H]2c2c(ccc3cc4c(ccc5ccccc54)nc23)[C@@H]1O,mutagenic call,[11],active; positive
same,mutagenic call,[12],active; positive
same,mutagenic call,"Test System: CHINESE HAMSTER V-79, Strain/Indicator: V-79/8-AZAGUANINE, Metabolic Activation: NONE",active; positive
